# Test results reported in patent publication US6589954B1, “Compounds and methods to treat cardiac failure and other disorders” (Scios, Inc., priority 1998, dated 2003).
# Several values for one entry are separate records, joined by “and”; a condition that tells them apart may be missing. Equal entries are not always repeated. Where two headings read alike, the source gives them in different places.
# Key:
# Assay type in all cases: biochemical
# p38α = p38α (Homo sapiens, UniProt Q16539); assay: Assay for p38 kinase inhibition (p38α);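 note: radiometric p38 kinase assay, peptide substrate phosphorylation with γ-32P-ATP, 40 min at room temperature, incorporated counts measured by scintillation, inhibition relative to uninhibited kinase activity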
# Sequence of p38α (Q16539 whole entry): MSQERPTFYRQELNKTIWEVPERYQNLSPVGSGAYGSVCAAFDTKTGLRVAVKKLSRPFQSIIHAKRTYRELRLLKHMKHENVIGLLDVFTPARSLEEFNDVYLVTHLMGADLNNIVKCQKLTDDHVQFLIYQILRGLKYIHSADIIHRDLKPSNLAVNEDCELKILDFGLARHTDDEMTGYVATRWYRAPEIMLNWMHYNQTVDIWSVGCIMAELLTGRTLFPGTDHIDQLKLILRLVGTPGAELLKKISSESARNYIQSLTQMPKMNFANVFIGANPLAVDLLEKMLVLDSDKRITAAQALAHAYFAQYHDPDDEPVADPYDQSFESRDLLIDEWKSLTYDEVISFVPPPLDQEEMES
# p38β = p38β (Homo sapiens, UniProt Q15759); assay: p38 kinase inhibition assay, p38β
# Sequence of p38β (Q15759 whole entry): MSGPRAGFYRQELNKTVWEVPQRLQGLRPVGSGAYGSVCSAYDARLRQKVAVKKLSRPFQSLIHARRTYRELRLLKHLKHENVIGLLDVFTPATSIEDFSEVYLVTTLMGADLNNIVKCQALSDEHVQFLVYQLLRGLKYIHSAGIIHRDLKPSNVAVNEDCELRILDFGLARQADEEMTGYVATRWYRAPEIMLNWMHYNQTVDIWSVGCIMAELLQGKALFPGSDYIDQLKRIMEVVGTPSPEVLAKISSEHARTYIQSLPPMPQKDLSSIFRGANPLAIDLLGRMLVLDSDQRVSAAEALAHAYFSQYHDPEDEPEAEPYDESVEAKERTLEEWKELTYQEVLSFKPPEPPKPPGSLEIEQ
# Method: The compounds to be tested were solubilized in DMSO and diluted into water to the desired concentrations. The p38 kinase was diluted to 10 μg/ml into a buffer containing 20 mM MOPS, pH 7.0, 25 mM beta-glycerol phosphate, 2 mg/ml gelatin, 0.5 mM EGTA, and 4 mM DTT.
# The reaction was carried out by mixing 20 μl test compound with 10 μl of a substrate cocktail containing 500 μg/ml peptide substrate and 0.2 mM ATP (+200 μCi/ml gamma-32P-ATP) in a 4×assay buffer. The reaction was initiated by the addition of 10 μl of p38 kinase. Final assay conditions were 25 mM MOPS, pH 7.0, 26.25 mM beta-glycerol phosphate, 80 mM KCl, 22 mM MgCl2, 3 mM MgSO4, 1 mg/ml gelatin, 0.625 mM. […] After a 40 minute incubation at room temperature, the reaction was stopped by the addition of 10 μl per reaction of 0.25 M phosphoric acid.
# A portion of the reaction was spotted onto a disk of P81 phosphocellulose paper, the filters were dried for 2 minutes and then washed 4× in 75 mM H3PO4. The filters were rinsed briefly in 95% ethanol, dried, then placed in scintillation vials with liquid scintillation cocktail.
# Alternatively, the substrate is previously biotinylated and the resulting reactions are spotted on SAM^2TM streptavidin filter squares (Promega). The filters are washed 4× in 2M NaCl, 4× in 2M NaCl with 1% phosphoric acid, 2× in water, and briefly in 95% ethanol. The filter squares are dried and placed in scintillation vials with liquid scintillation cocktail.
# (§1) Counts incorporated are determined on a scintillation counter. Relative enzyme activity is calculated by subtracting background counts (counts measured in the absence of enzyme) from each result, and comparing the resulting counts to those obtained in the absence of inhibitor. IC50 values were determined with curve-fitting plots available with common software packages. Approximate IC50 values were calculated using formula
# (§2) where A=fractional activity and i=total inhibitor concentration.
# Activity with regard to p38β was also tested for compounds of the invention to determine the influence of the position of the piperidinyl or piperazinyl substituent. The influence of substitution on the benzyl moiety attached to the 4-position of the piperazine or piperidine was also tested.
# ERK-2 = ERK-2 (Homo sapiens, UniProt P28482); assay: Kinase specificity, ERK-2; details: approximate IC50; tested at 50 μM, calculated using the formula in Example 22
# Sequence of ERK-2 (P28482 whole entry, species assumed): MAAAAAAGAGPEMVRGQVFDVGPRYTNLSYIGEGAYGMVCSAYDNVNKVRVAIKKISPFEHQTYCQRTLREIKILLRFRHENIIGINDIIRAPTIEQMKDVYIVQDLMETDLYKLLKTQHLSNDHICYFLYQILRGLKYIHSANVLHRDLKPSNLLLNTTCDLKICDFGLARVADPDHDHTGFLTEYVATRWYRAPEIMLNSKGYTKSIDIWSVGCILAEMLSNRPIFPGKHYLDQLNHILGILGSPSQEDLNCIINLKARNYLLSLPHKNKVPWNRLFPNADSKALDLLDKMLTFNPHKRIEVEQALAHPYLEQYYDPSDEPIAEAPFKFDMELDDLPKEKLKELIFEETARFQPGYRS
# Method: as §1, §2
# (§3) The specificity of the compounds of the invention was also tested with respect to other kinases, including p38-γ, ERK-2, PKA, PKC, cdc-2, EGF-R, and DNA-PK as shown in Table 4. The compounds tested are the 4-benzylpiperidinyl indole-5- and 6-carboximides with the number indicating the ring position of the carboxamide.
# (§4) The exception is for p38α values where the IC50 values were determined from concentration dependent curve fitting analysis.
# EGF-R = EGF-R (Homo sapiens, UniProt P00533); assay: Kinase specificity, EGF-R; details: approximate IC50; tested at 50 μM, calculated using the formula in Example 22
# Sequence of EGF-R (P00533 25-1210, species assumed): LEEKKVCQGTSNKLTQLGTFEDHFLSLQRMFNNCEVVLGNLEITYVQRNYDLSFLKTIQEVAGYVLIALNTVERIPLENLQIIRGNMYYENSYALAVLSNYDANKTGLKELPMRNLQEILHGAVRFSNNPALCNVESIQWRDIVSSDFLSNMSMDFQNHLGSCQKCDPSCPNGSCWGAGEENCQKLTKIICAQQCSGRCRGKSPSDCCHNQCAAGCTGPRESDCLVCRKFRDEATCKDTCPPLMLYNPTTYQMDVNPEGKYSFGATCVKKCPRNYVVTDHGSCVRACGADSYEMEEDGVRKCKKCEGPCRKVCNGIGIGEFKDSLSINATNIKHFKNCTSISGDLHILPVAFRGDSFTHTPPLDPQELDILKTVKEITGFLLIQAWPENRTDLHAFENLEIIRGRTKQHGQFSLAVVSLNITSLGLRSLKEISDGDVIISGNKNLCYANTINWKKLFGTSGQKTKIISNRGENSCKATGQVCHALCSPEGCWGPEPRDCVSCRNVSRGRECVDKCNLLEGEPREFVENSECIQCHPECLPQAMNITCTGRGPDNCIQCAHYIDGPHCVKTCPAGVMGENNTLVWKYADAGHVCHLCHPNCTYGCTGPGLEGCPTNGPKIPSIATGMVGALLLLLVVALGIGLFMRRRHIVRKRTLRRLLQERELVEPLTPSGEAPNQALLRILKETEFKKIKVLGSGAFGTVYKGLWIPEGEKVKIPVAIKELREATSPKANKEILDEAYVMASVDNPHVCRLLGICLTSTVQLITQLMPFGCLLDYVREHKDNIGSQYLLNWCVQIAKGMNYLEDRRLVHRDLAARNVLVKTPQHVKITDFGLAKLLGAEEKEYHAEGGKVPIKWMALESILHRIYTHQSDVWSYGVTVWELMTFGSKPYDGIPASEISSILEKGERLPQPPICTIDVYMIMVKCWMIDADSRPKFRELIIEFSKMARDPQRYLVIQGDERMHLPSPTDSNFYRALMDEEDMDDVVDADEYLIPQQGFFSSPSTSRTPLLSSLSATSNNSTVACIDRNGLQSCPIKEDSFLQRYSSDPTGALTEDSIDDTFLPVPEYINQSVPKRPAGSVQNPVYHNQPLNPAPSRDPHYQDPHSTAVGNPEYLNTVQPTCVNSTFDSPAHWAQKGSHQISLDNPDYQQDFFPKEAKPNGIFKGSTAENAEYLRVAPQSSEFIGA
# Method: as §1, §2, §3, §4
# DNA-PK = DNA-PK (Homo sapiens, UniProt P78527); assay: Kinase specificity, DNA-PK; details: approximate IC50; tested at 50 μM, calculated using the formula in Example 22
# Method: as §1, §2, §3, §4
# cdc2 = cdc2 (Homo sapiens, UniProt P06493); assay: Kinase specificity, cdc2; details: approximate IC50; tested at 50 μM, calculated using the formula in Example 22
# Sequence of cdc2 (P06493 whole entry, species assumed): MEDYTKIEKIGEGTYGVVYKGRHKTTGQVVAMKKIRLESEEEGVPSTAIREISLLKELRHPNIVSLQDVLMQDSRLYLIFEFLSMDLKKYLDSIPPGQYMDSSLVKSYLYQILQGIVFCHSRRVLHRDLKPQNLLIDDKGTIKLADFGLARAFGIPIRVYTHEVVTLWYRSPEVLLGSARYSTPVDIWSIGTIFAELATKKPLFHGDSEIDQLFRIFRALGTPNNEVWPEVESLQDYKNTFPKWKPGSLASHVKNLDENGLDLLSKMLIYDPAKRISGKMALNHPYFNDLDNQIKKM
# Sequence of cdc2 (P14635 whole entry partner, species assumed): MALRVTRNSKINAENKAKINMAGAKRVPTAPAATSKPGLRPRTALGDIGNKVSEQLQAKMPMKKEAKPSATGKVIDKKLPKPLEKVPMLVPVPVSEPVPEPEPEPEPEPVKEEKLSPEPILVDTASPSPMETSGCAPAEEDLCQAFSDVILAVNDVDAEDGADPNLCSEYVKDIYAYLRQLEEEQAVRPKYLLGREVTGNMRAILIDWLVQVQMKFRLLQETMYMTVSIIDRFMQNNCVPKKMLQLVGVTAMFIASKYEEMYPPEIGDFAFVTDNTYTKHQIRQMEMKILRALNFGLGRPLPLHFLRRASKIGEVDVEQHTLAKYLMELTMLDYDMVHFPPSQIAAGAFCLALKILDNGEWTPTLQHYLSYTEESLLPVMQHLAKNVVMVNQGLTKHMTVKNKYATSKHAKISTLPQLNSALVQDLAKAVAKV
# Method: as §1, §2, §3, §4
# PKA = PKA (Homo sapiens, UniProt P17612); assay: Kinase specificity, PKA; details: approximate IC50; tested at 50 μM, calculated using the formula in Example 22
# Method: as §1, §2, §3, §4
# PKC = assay: Kinase specificity, PKC; details: approximate IC50; tested at 50 μM, calculated using the formula in Example 22
# Method: as §1, §2, §3, §4
# p38-γ = biological target: T1, p38-γ (Homo sapiens, UniProt P53778); assay: Kinase specificity, p38-γ; details: approximate IC50; tested at 50 μM, calculated using the formula in Example 22
# T1 sequence (P53778 1-367): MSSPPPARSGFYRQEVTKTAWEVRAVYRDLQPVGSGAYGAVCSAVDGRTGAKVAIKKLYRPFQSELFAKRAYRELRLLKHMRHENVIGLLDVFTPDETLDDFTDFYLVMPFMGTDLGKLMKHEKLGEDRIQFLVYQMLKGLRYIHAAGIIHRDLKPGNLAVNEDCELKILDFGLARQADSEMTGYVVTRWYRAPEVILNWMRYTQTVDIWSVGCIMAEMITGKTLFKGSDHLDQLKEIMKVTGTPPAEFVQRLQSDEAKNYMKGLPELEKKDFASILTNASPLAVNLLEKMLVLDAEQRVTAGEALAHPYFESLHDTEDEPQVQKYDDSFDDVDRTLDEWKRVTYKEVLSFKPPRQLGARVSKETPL
# Method: as §1, §2, §3, §4
# [1] = Table 5, read-out: IC50, inhibition of p38α
# [2] = at 50 μM concentration of the compound, Table 3
# [3] = Table 1, by ring position of the piperidinyl or piperazinyl substituent on indole, read-out: IC50 for inhibition of p38α
# [4] = at 50 μM concentration of the compound, Table 3, read-out: percent inhibition of p38β activity
Molecule,IC50 (p38α; [1]),inhibition at 50 µM (p38β; [4]) [%],other results
O=C(c1ccc2[nH]cc(CN3CCOCC3)c2c1)N1CCC(Cc2ccccc2)CC1,6570 nM,,
CC(=O)N1CCC(Cc2ccc(F)cc2)C1 (stereo not shown),,,inhibition at 1 µM (p38α; at 1 μM): 51%
Cc1cc2c(Cl)c(C(=O)N3CCC(Cc4ccccc4)CC3)ccc2[nH]1,489 nM,,inhibition at 0.2 µM (p38α; at 0.2 μM): 43%
O=C(c1ccc2[nH]cnc2c1)N1CCC(Cc2ccc(F)cc2)CC1,390 nM,,
4-(4-Chlorobenzyl)piperazinyl-indole-5-carboxamide [Piperazinyl 5 4-Cl],,,percent inhibition of p38β activity (p38β; [2]): 77%
CCN(CC)CCn1ccc2cc(C(=O)N3CCC(Cc4ccc(F)cc4)CC3)ccc21 [1-(Diethylamino)-ethyl-(4′-fluoro-4-benzylpiperidinyl)-indole-5-carboxamide],354 nM,,
CCN(CC)CCCn1ccc2cc(C(=O)N3CCC(Cc4ccccc4)CC3)c(Cl)cc21 [1-(Diethylamino)-n-propyl-6-chloro-(4-benzylpiperidinyl)-indole-5-carboxamide],199 nM,,
O=C(c1ccc2c(C(=O)C(F)(F)F)c[nH]c2c1)N1CCC(Cc2ccccc2)CC1 [3-trifluoroacetyl-(4-benzylpiperidinyl)indole-6-carboxamide],,,inhibition of p38α (p38α; at 1 μM): 41%
NC(=O)c1ccc2nc(N3CCN(Cc4cccc(Cl)c4)CC3)[nH]c2c1 [4-(3-chlorobenzyl)-piperazinyl-benzimidazole-5-carboxamide],,,inhibition of p38β (p38β; compounds tested at 50 μM): 66%
COc1cc2[nH]ccc2cc1C(=O)N1CCC(Cc2ccc(F)cc2)CC1 [6-methoxy-(4-(4fluorobenzyl)piperidinyl)indole-5-carboxamide],159 nM,,
"O=C(c1ccc2cc[nH]c2c1)N1CCC(Cc2ccccc2)CC1 [Piperidinyl 6, 4-benzylpiperidinyl-indole-6-carboxamide]",,,IC50 (ERK-2): > 300000 nM; IC50 (EGF-R): > 500000 nM; IC50 (DNA-PK): 450000 nM; IC50 (cdc2): > 500000 nM; percent inhibition of p38β activity (p38β; [2]): 92%; IC50 (PKA): > 500000 nM; IC50 (PKC): > 500000 nM; IC50 (p38-γ): > 300000 nM

# Now from value to molecule, other results behind:
IC50 (p38α; [1]),inhibition at 50 µM (p38β; [4]) [%],Molecule,other results
474 nM,,CCN(CC)CCCn1ccc2cc(C(=O)N3CCC(Cc4ccccc4)CC3)ccc21 [1-(Diethylamino)n-propyl-(4-benzylpiperidinyl)-indole-5-carboxamide],
184 nM,,CCN(CC)CCn1ccc2cc(C(=O)N3CCC(Cc4ccccc4)CC3)c(OC)cc21 [1-(Diethylaminoethyl)-6-methoxy-(4-benzylpiperidinyl)-indole-5-carboxamide],
635 nM,,O=C(c1ccc2[nH]cnc2c1)N1CCC(Cc2ccccc2)CC1 [4-Benzyl-piperidinyl-benzimidazole-5-carboxamide],"inhibition at 50 µM (p38β; compounds tested at 50 μM, read-out: inhibition of p38β): 85%"
64.6 nM,,COc1cc2[nH]cc(C(=O)NCCN(C)C)c2cc1C(=O)N1CCC(Cc2ccccc2)CC1 [6-methoxy-3-(2-dimethylaminoethylamino)carboxamidyl-(4-benzylpiperidinyl)indole-5-carboxamide],
,27,O=C(c1cc2ccccc2[nH]1)N1CCN(Cc2ccccc2)CC1 [Piperazinyl 2],IC50 (p38α; [3]): > 30000 nM
,77,O=C(c1c[nH]c2ccccc12)N1CCN(Cc2ccccc2)CC1 [Piperazinyl 3],IC50 (p38α; [3]): 5440 nM
,68,O=C(c1cccc2[nH]ccc12)N1CCN(Cc2ccccc2)CC1 [Piperazinyl 4],
,59,O=C(c1ccc2[nH]ccc2c1)N1CCN(Cc2ccccc2)CC1 [Piperazinyl 5],
,56,O=C(c1ccc2cc[nH]c2c1)N1CCN(Cc2ccccc2)CC1 [Piperazinyl 6],IC50 (p38α; [3]): 4970 nM
,7,O=C(c1cccc2cc[nH]c12)N1CCN(Cc2ccccc2)CC1 [Piperazinyl 7],
,12,O=C(c1cc2ccccc2[nH]1)N1CCC(Cc2ccccc2)CC1 [Piperidinyl 2],IC50 (p38α; [3]): 3260 nM
,96,O=C(c1c[nH]c2ccccc12)N1CCC(Cc2ccccc2)CC1 [Piperidinyl 3],IC50 (p38α; [3]): 200 nM
,96,O=C(c1cccc2[nH]ccc12)N1CCC(Cc2ccccc2)CC1 [Piperidinyl 4],IC50 (p38α; [3]): 200 nM
523 nM and 577 nM,96,"O=C(c1ccc2[nH]ccc2c1)N1CCC(Cc2ccccc2)CC1 [Piperidinyl 5, 4-Benzylpiperidinyl-indole-5-carboxamide]",IC50 (p38α; [3]): 242 nM
,45,O=C(c1cccc2cc[nH]c12)N1CCC(Cc2ccccc2)CC1 [Piperidinyl 7],IC50 (p38α; [3]): > 30000 nM
871 nM,,O=C(c1ccc2c(ccn2C(=O)c2ccncc2)c1)N1CCC(Cc2ccccc2)CC1 [drawing 82],
405 nM,,O=C(c1ccc2c(ccn2C(=O)c2ccncc2)c1)N1CCC(Cc2ccccc2)CC1 [drawing 83],
